Experimental data published in the supplement of paper PMC10307832.

Columns and labels:
Test in all cases: relative viability (nuclei count vs DMSO), 5 days (fraction); higher = more cells survive
[1] = compound: CC(C)N(CCCNC(=O)Nc1ccc(C(C)(C)C)cc1)C[C@H]1O[C@@H](n2ccc3c(N)ncnc32)[C@H](O)[C@@H]1O + COc1cc2c(Oc3ccc(NC(=O)C4(C(=O)Nc5ccc(F)cc5)CC4)cc3F)ccnc2cc1OCCCN1CCOCC1 [Foretinib] (partner 0.25 µM)
Procedure, shortened: (§1)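 Relative viability is defined as nuclei in treated wells over nuclei in vehicle wells. Duplicate plates were run and medians reported. Lung cancer cell lines in 1536-well plates were dosed by pin tool one day after seeding, with one drug or with a fixed anchor-drug dose plus five library-drug doses (not always all listed) in √10 steps, and nuclei were counted after 5 days.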

[2] = compound: CC(C)N(CCCNC(=O)Nc1ccc(C(C)(C)C)cc1)C[C@H]1O[C@@H](n2ccc3c(N)ncnc32)[C@H](O)[C@@H]1O + C[C@@H](Oc1cc(-c2cnn(C3CCNCC3)c2)cnc1N)c1c(Cl)ccc(F)c1Cl [Crizotinib] (partner 1 µM)
Procedure, shortened: as §1

Shikonin + Vorinostat = compound: CC(C)=CC[C@@H](O)C1=CC(=O)c2c(O)ccc(O)c2C1=O [Shikonin] + O=C(CCCCCCC(=O)Nc1ccccc1)NO [Vorinostat] (partner 1 µM)
Procedure, shortened: as §1

Shikonin + AZD7762 = compound: CC(C)=CC[C@@H](O)C1=CC(=O)c2c(O)ccc(O)c2C1=O [Shikonin] + NC(=O)Nc1cc(-c2cccc(F)c2)sc1C(=O)N[C@H]1CCCNC1 [AZD7762] (partner 0.2 µM)
Procedure, shortened: as §1

Row | Cell Line | relative viability ([1]; first compound 0.08 µM) | relative viability ([1]; first compound 0.253 µM) | relative viability ([1]; first compound 0.8 µM) | relative viability ([1]; first compound 2.53 µM) | relative viability ([1]; first compound 8 µM) | relative viability ([2]; first compound 0.08 µM) | relative viability ([2]; first compound 0.253 µM) | relative viability ([2]; first compound 0.8 µM) | relative viability ([2]; first compound 2.53 µM) | relative viability ([2]; first compound 8 µM) | relative viability (Shikonin + Vorinostat; first compound 0.01 µM) | relative viability (Shikonin + Vorinostat; first compound 0.1 µM) | relative viability (Shikonin + Vorinostat; first compound 0.3162 µM) | relative viability (Shikonin + Vorinostat; first compound 1 µM) | relative viability (Shikonin + AZD7762; first compound 0.01 µM) | relative viability (Shikonin + AZD7762; first compound 0.1 µM) | relative viability (Shikonin + AZD7762; first compound 0.3162 µM) | relative viability (Shikonin + AZD7762; first compound 1 µM)
1 | LCLC-103H | 0.704 | 0.744 | 0.717 | 0.627 | 0.71 | 0.946 | 0.93 | 0.914 | 1 | 0.872 | 0.791 | 0.877 | 0.801 | 0.889 | 0.796 | 0.889 | 0.815 | 0.954
2 | LK-2 | 1.36 | 0.816 | 1.36 | 1.2 | 1.44 | 0.269 | 0.232 | 0.217 | 0.261 | 0.229 | 0.279 | 0.309 | 0.214 | 0.316 | 0.368 | 0.428 | 0.424 | 0.231
3 | LOU-NH91 | 0.858 | 0.946 | 0.571 | 0.958 | 0.924 | 0.755 | 0.735 | – | 0.7 | 0.721 | 0.921 | 1.02 | 1.04 | 0.957 | 0.839 | 0.864 | 0.816 | 0.84
4 | LU99A | 0.795 | 0.782 | 0.78 | 0.767 | 0.749 | 0.661 | 0.571 | 0.513 | 0.524 | 0.498 | 0.459 | 0.617 | 0.485 | 0.494 | 0.381 | 0.334 | 0.687 | 0.323
5 | LXF-289 | 0.96 | 1.03 | 0.94 | 1.01 | 0.94 | 0.781 | 0.893 | 0.834 | 0.837 | 0.78 | 0.787 | 0.764 | 0.862 | 0.79 | 1.13 | 1.15 | 1.14 | 1.18
6 | NCI-H23 | 0.891 | 0.964 | 1.02 | 0.937 | 0.945 | 0.487 | – | 0.506 | 0.694 | 0.534 | 0.611 | 0.75 | 0.59 | 0.625 | 0.223 | 0.27 | 0.268 | 0.231
7 | NCI-H322M | 0.904 | 0.894 | 0.94 | 1.02 | 1.06 | 0.912 | 1.04 | 0.802 | 0.969 | 0.962 | 0.672 | 0.911 | 0.953 | 0.978 | 0.59 | 0.568 | 0.451 | 0.572
8 | NCI-H358 | 0.548 | 0.63 | 0.67 | 0.662 | 0.58 | 0.614 | 0.554 | 0.717 | 0.589 | 0.448 | 0.999 | 0.67 | 0.856 | 0.573 | 0.425 | 0.62 | 0.607 | 0.603
9 | NCI-H441 | 1.01 | 0.913 | – | 0.801 | 0.968 | 0.815 | 0.872 | 1.09 | 0.714 | 0.673 | 0.875 | 0.832 | 0.783 | 0.695 | 1.39 | 0.935 | 1.16 | 1.43
